The text below walks through data of patent publication US10604509B2, “Nrf2 regulators” (GlaxoSmithKline Intellectual Property Development Limited, priority 2015, dated 2020).

Structures can show the parent of a compound that is named as a salt.

One experiment has as its system NQO1 specific enzyme activity in BEAS-2B cells. In words: BEAS-2B NQO1 MTT assay. The class given is cell-based. To be noted: BEAS-2B cells, 48 hours with compound, MTT readout; read-out: EC50 of NQO1 specific activity induction. In a few lines: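 NQO1 specific activity, an NRF2 activation marker, read kinetically as absorbance change at 570 nm for 30 min after MTT cocktail addition to crude lysates of BEAS-2B cells exposed 48 h to compound. Three-parameter fit of Delta OD/min against log concentration gives EC50; lysate portion used for Cell Titer Glo.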
`CC[C@@H]1CN(Cc2cc([C@H](CC(=O)O)c3ccc4c(nnn4CC)c3Cl)ccc2C)Cc2ccccc2O1` [Example 66, (S)-3-(4-Chloro-1-ethyl-1H-benzo[d][1,2,3]triazol-5-yl)-3-(3-(((R)-2-ethyl-2,3-dihydrobenzo[f][1,4]oxazepin-4(5H)-yl)methyl)-4-methylphenyl)propanoate, Sodium Salt]: the EC50 lay in the range of 10 to 100 nM.

The same experiment, now with this note: Homo sapiens, BEAS-2B, 48 h, BEAS-2B cells, 48 hours with compound, MTT readout; read-out: EC50 of NQO1 specific activity induction.
Turning to `CCn1nnc2c(F)c([C@H](CC(=O)O)c3ccc(C)c(CN4Cc5ccccc5OC(C)(C)C4)c3)ccc21` [Example 65, (R)-3-(3-((2,2-Dimethyl-2,3-dihydrobenzo[f][1,4]oxazepin-4(5H)-yl)methyl)-4-methylphenyl)-3-(1-ethyl-4-fluoro-1H-benzo[d][1,2,3]triazol-5-yl)propanoic Acid, Hydrochloride], the EC50 was in the range of 10 to 100 nM.

Regarding `CC[C@@H]1CN(Cc2cc([C@@H](CC(=O)O)c3ccc4c(nnn4CC)c3Cl)ccc2C)Cc2ccccc2O1` [Example 67, (R)-3-(4-Chloro-1-ethyl-1H-benzo[d][1,2,3]triazol-5-yl)-3-(3-(((R)-2-ethyl-2,3-dihydrobenzo[f][1,4]oxazepin-4(5H)-yl)methyl)-4-methylphenyl)propanoate, Sodium Salt], the EC50 lay within 10 to 100 nM.

`CC[C@@H]1CN(Cc2cc([C@H](CC(=O)O)c3ccc4c(nnn4CC)c3C)ccc2C)Cc2ccccc2O1` [Example 68, (S)-3-(3-(((R)-2-Ethyl-2,3-dihydrobenzo[f][1,4]oxazepin-4(5H)-yl)methyl)-4-methylphenyl)-3-(1-ethyl-4-methyl-1H-benzo[d][1,2,3]triazol-5-yl)propanoic Acid, Formic Acid Salt]: the EC50 is 10 to 100 nM.

With `CCC1CN(Cc2cc(C(CC(=O)O)c3ccc4c(nnn4CC)c3C)ccc2C)Cc2ccccc2O1` (stereo not drawn) [Example 69, 3-(3-((2-Ethyl-2,3-dihydrobenzo[f][1,4]oxazepin-4(5H)-yl)methyl)-4-methylphenyl)-3-(1-ethyl-4-methyl-1H-benzo[d][1,2,3]triazol-5-yl)propanoic Acid, Formic Acid Salt], the concentration giving a half-maximal response (EC50) was in the range of 10 to 100 nM.

As to `CCC1CN(Cc2cc(C(CC(=O)O)c3cc(OC)c4c(nnn4C)c3C)ccc2C)Cc2ccccc2O1` (stereo not drawn) [Example 70, 3-(3-((2-Ethyl-2,3-dihydrobenzo[f][1,4]oxazepin-4(5H)-yl)methyl)-4-methylphenyl)-3-(7-methoxy-1,4-dimethyl-1H-benzo[d][1,2,3]triazol-5-yl)propanoic Acid, Formic Acid Salt], the EC50 is 10 to 100 nM.

As for `CCCC1CN(Cc2cc(C(CC(=O)O)c3ccc4c(nnn4C)c3C)ccc2C)Cc2ccccc2O1` (stereo not drawn) [Example 71, 3-(1,4-dimethyl-1H-benzo[d][1,2,3]triazol-5-yl)-3-(4-methyl-3-((2-propyl-2,3-dihydrobenzo[f][1,4]oxazepin-4(5H)-yl)methyl)phenyl)propanoic Acid, Formic Acid Salt], the EC50 fell in the range of 100 to 1000 nM.

With `Cc1ccc(C(CC(=O)O)c2ccc3c(nnn3C)c2C)cc1CN1Cc2ccccc2OC(C(C)C)C1` (stereo not drawn) [Example 72, 3-(1,4-dimethyl-1H-benzo[d][1,2,3]triazol-5-yl)-3-(3-((2-isopropyl-2,3-dihydrobenzo[f][1,4]oxazepin-4(5H)-yl)methyl)-4-methylphenyl)propanoic acid, formic acid salt], the concentration giving a half-maximal response (EC50) is 1000 to 10000 nM.

For the compound `CC[C@@H]1CN(Cc2cc(C(CC(=O)O)c3ccc4c(nnn4C)c3C)ccc2C)Cc2ccccc2O1` (stereo partly drawn) [Example 73, 3-(1,4-Diemthyl-1H-benzo[d][1,2,3]triazol-5-yl)-3-(3-(((R)-2-ethyl-2,3-dihydrobenzo[f][1,4]oxazepin-4(5H)-yl)methyl)-4-methylphenyl)propanonic acid, formic acid salt], the EC50 was 100 to 1000 nM.

For the compound `COCC1CN(Cc2cc(C(CC(=O)O)c3ccc4c(nnn4C)c3C)ccc2C)Cc2ccccc2O1` (stereo not drawn) [Example 74, 3-(1,4-Dimethyl-1H-benzo[d][1,2,3]triazol-5-yl)-3-(3-((2-(methoxymethyl)-2,3-dihydrobenzo[f][1,4]oxazepin-4(5H)-yl)methyl)-4-methylphenyl)propanoic acid, formic acid salt], the EC50 was in the range of 100 to 1000 nM.

`CC[C@@H]1CN(Cc2cc(C(CC(=O)O)c3ccc4c(nnn4C)c3C)ccc2C)Cc2ccc(F)cc2O1` (stereo partly drawn) [Example 75, 3-(1,4-Dimethyl-1H-benzo[d][1,2,3]triazol-5-yl)-3-(3-(((R)-2-ethyl-8-fluoro-2,3-dihydrobenzo[f][1,4]oxazepin-4(5H)-yl)methyl)-4-methylphenyl)propanoic Acid, Formic Acid Salt]: the EC50 was 100 to 1000 nM.

Regarding `CC[C@@H]1CN(Cc2cc(C(CC(=O)O)c3ccc4c(nnn4C)c3C)ccc2C)Cc2cccc(C)c2O1` (stereo partly drawn) [Example 76, Ammonium 3-(1,4-Dimethyl-1H-benzo[d][1,2,3]triazol-5-yl)-3-(3-(((R)-2-ethyl-9-methyl-2,3-dihydrobenzo[f][1,4]oxazepin-4(5H)-yl)methyl)-4-methylphenyl)propanate], the EC50 lay in the range of 100 to 1000 nM.

Turning to `CC[C@@H]1CN(Cc2cc(C(CC(=O)O)c3ccc4c(nnn4C)c3C)ccc2C)Cc2cc(Cl)ccc2O1` (stereo partly drawn) [Example 77, Ammonium 3-(3-(((R)-7-Chloro-2-ethyl-2,3-dihydrobenzo[f][1,4]oxazepin-4(5H)-yl)methyl)-4-methylphenyl)-3-(1,4-dimethyl-1H-benzo[d][1,2,3]triazol-5-yl)propanate], the EC50 was in the range of 1000 to 10000 nM.

In the case of `CC[C@@H]1CN(Cc2cc(C(CC(=O)O)c3ccc4c(nnn4C)c3C)ccc2C)Cc2cc(F)ccc2O1` (stereo partly drawn) [Example 78, 3-(1,4-Dimethyl-1H-benzo[d][1,2,3]triazol-5-yl)-3-(3-(((R)-2-ethyl-7-fluoro-2,3-dihydrobenzo[f][1,4]oxazepin-4(5H)-yl)methyl)-4-methylphenyl)propanoic acid, formic acid salt], the EC50 lay within 1000 to 10000 nM.

As to `CC[C@@H]1CN(Cc2cc(C(CC(=O)O)c3ccc4c(nnn4C)c3C)ccc2C)Cc2ncccc2O1` (stereo partly drawn) [Example 79, 3-(1,4-Dimethyl-1H-benzo[d][1,2,3]triazol-5-yl)-3-(3-(((R)-2-ethyl-2,3-dihydropyrido[2,3-f][1,4]oxazepin-4(5H)-yl)methyl)-4-methylphenyl)propanoic acid], the EC50 was in the range of 1000 to 10000 nM.

As for `CC[C@@H]1CN(Cc2cc(C(CC(=O)O)c3ccc4c(nnn4C)c3C)ccc2C)Cc2cccc(F)c2O1` (stereo partly drawn) [Example 80, 3-(1,4-Diemthyl-1H-benzo[d][1,2,3]triazol-5-yl)-3-(3-(((R)-2-ethyl-9-fluoro-2,3-dihydrobenzo[f][1,4]oxazepin-4(5H)-yl)methyl)-4-methylphenyl)propanoic acid, formic acid salt], the EC50 was 10 to 100 nM.

On to `CC[C@@H]1CN(Cc2cc(C(CC(=O)O)c3ccc4c(nnn4C)c3C)ccc2C)Cc2cc(C)ccc2O1` (stereo partly drawn) [Example 81, Ammonium 3-(1,4-dimethyl-1H-benzo[d][1,2,3]triazol-5-yl)-3-(3-(((R)-2-ethyl-7-methyl-2,3-dihydrobenzo[f][1,4]oxazepin-4(5H)-yl)methyl)-4-methylphenyl)propanate], for which the EC50 is 10 to 100 nM.

For `CCC1CN(Cc2cc(C(CC(=O)O)c3ccc4c(nnn4C)c3C)ccc2C)Cc2ccc(Br)cc2O1` (stereo not drawn) [Example 82, 3-(3-((8-Bromo-2-ethyl-2,3-dihydrobenzo[f][1,4]oxazepin-4(5H)-yl)methyl)-4-methylphenyl)-3-(1,4-dimethyl-1H-benzo[d]-[1,2,3]triazol-5-yl)propanoic acid], the EC50 fell in the range of 10 to 100 nM.

Take `CC[C@@H]1CN(Cc2cc(C(CC(=O)O)c3ccc4c(nnn4C)c3C)ccc2C)Cc2c(F)cccc2O1` (stereo partly drawn) [Example 83, 3-(1,4-Dimethyl-1H-benzo[d][1,2,3]triazol-5-yl)-3-(3-(((R)-2-ethyl-6-fluoro-2,3-dihydrobenzo[f][1,4]oxazepin-4(5H)-yl)methyl)-4-methylphenyl)propanoic acid]: the EC50 was in the range of 100 to 1000 nM.

In the case of `CCC1CN(Cc2cc(C(CC(=O)O)c3ccc4c(nnn4C)c3C)ccc2C)Cc2ccc(OC)cc2O1` (stereo not drawn) [Example 84, 3-(1,4-Dimethyl-1H-benzo[d][1,2,3]triazol-5-yl)-3-(3-((2-ethyl-8-methoxy-2,3-dihdyrobenzo[f][1,4]oxazepin-4(5H)-yl)methyl)-4-methylphenyl)propanoic acid, form acid salt], the EC50 lay within 100 to 1000 nM.

In the case of `CC[C@@H]1CN(Cc2cc(C(CC(=O)O)c3ccc4c(nnn4C)c3C)ccc2C)Cc2ccc(C)cc2O1` (stereo partly drawn) [Example 85, Ammoniumn 3-(1,4-Dimethyl-1H-benzo[d][1,2,3]triazol-5-yl)-3-(3-(((R)-2-ethyl-8-methyl-2,3-dihydrobenzo[f][1,4]oxazepin-4(5H)-yl)methyl)-4-methyphenyl)propanoate], the EC50 fell in the range of 100 to 1000 nM.

Turning to `CC[C@@H]1CN(Cc2cc(C(CC(=O)O)c3ccc4c(nnn4C)c3C)ccc2C)Cc2cnccc2O1` (stereo partly drawn) [Example 86, 3-(1,4-Dimethyl-1H-benzo[d][1,2,3]triazol-5-yl)-3-(3-(((R)-2-ethyl-2,3-dihydropyrido[3,4-f][1,4]oxazepin-4(5H)-yl)methyl)-4-methylphenyl)propanoic acid], the EC50 lay within 100 to 1000 nM.

On to `CCC1CN(Cc2cc(C(CC(=O)O)c3ccc4c(nnn4C)c3C)ccc2C)Cc2cc(F)ccc2O1` (stereo not drawn) [Example 87, 3-(1,4-Dimethyl-1H-benzo[d][1,2,3]triazol-5-yl)-3-(3-((2-ehtyl-7-fluoro-2,3-dihydrobenzo[f][1,4]oxazepin-4(5H)-yl)methyl)-4-methylphenyl)propanoic acid], for which the concentration giving a half-maximal response (EC50) fell in the range of 10 to 100 nM.

Consider `CCC1CN(Cc2cc(C(CC(=O)O)c3ccc4c(nnn4C)c3C)ccc2C)Cc2c(Cl)cccc2O1` (stereo not drawn) [Example 88, 3-(3-((6-Chloro-2-ethyl-2,3-dihydrobenzo[f][1,4]oxazepin-4(5H)-yl)methyl)-4-methylphenyl)-3-(1,4-dimethyl-1H-benzo[d][1,2,3]triazol-5-yl)propanoic acid], for which the EC50 is 100 to 1000 nM.
